Test results from patent US6218384A, “3-Oxo-pyrido(1,2-a)benzimidazole-4-carboxyl and 4-oxo-azepino(1,2-a)benzimidazole-5-carboxyl derivatives useful in treating central nervous system disorders” (Ortho-McNeil Pharmaceutical, Inc., priority 1997, dated 2001).
Like-named read-outs stand apart in the source and are kept apart here.

Columns and labels:
[1] = biological target: benzodiazepine site of the GABA-A receptor; test: Benzodiazepine Receptor Binding Assay (inhibition of 3H-flunitrazepam binding); conditions: ca. 3 nM 3H-flunitrazepam
[2] = Suppression of anxiety (punished licking, conflict test) in the adult male rat; type: in vivo, male rats
Procedure: The anxiolytic activity of selected compounds of the invention was assessed by determining their ability to release (disinhibit) behavior that had been suppressed by punishment (Vogel, J. R. et al. Psychopharmacology 1971, 21, 1). Male rats were deprived of water for 48 hours and were deprived of food for 24 hours prior to testing. After the first 24 hours of water deprivation, they were placed in the conflict chamber for a training period; wherein, they were allowed 200 unpunished licks from a bottle containing tap water. The experiment was run the next day. At the expected time of peak activity, the animals were placed in the chamber and allowed access to tap water. […] Their first lick initiates a 3-min test session. Subsequently,every 20th lick was punished by a 0.2-s shock delivered via the stainless-steel drinking-tube. Vehicle-treated control animals generally were willing to accept a median number of 3 to 8 shocks per test session. […] The Wilcoxon rank-sum test (Mann-WhitneyU-test) was used to test for an increase (p<0.05, 1-tailed) in the median number of shocks in drug-treated groups, compared to a concurrently run vehicle-treated group. The biological assay is considered to be valid if the effects of a known anxiolytic (positive control) are detected, within the same experiment. A compound was considered active if there is a significant difference in the median number of shocks tolerated between the drug-treated group and the control group. The MED was defined as the minimum dose of the drug-treatment as analyzed using the Wilcoxon rank-sum test (SAS; Statistical Analysis System, version 5.16). If the MED value is greater than 10, an active dose of the compound being tested had not been determined.

[3] = Suppression of metrazol-induced convulsions; type: in vivo, male CD1 mice; conditions: Mus musculus, 0.5 h, mice
Procedure: Selected compounds of the invention were tested for their ability to reduce metrazol-induced convulsions in mice (Swinyard, E. A. J. Am. Pharm Assoc. 1949, 38, 201). Male CD1 mice, were fasted at least 16 hours, were divided into equal groups and test compounds or vehicle were administered parenterally. Water was not withheld except during the period of observations. At the time of suspected peak activity, anti-pentylenetetrazol (anti-metrazol) activity was evaluated by the subcutaneous administration of the CD90 dose of metrazol (the dose of metrazol was determined from the dose-response curve producing clonic convulsions in 90% of animals that received the corresponding vehicle for this experiment). Metrazol was dissolved in 0.9% sodium chloride solution, and its dose volume was 10 ml/kg. Animals were housed individually for observation of clonic convulsions, tonic convulsions and death for a period of 30 min. Test compounds that blocked the clonic seizure component of the convulsion in at least 50% of the animals were considered active. The biological assay was considered to be valid if the effects of a known anticonvulsant (positive control) were detected, within the same experiment. Activity was reported as percent reduction of clonic convulsions from the vehicle group. The ED50 values of active compounds were calculated by the method of probits (Finney, D. J. 1971. Probit Analysis. London: Cambridge University Press) and are listed in Tables 1 to 5.

[4] = Table 1, 25° C., 10-20 min, >10,000 = not active
[5] = Table 1, ip, minimum effective dose, >10 = active dose not determined, read-out: Conflict (ip) MED
[6] = Table 1, ip, clonic convulsions after sc CD90 metrazol, >30 = active dose not determined, read-out: Metrazol (ip) ED50
[7] = Table 2, ip, minimum effective dose, read-out: Conflict (ip) MED
[8] = Table 2, ip, clonic convulsions, read-out: Antimetrazol (ip) ED50
[9] = Table 3, minimum effective dose, read-out: Conflict MED
[10] = Table 3, parenteral, clonic convulsions, read-out: Antimetrazol ED50
[11] = Table 4, minimum effective dose, read-out: Conflict MED
[12] = Table 4, parenteral, clonic convulsions, read-out: Antimetrazol ED50
[13] = Table 5, minimum effective dose, read-out: Conflict MED
[14] = Table 5, parenteral, clonic convulsions, read-out: Antimetrazol ED50

O=C1CCN2C(=C1C(=O)Nc1ncc[nH]1)Nc1ccccc12 [compound 99]
IC50 [1, 4]: 185 nM
minimal effective dose [2, 5]: > 10 mg/kg
ED50 [3, 6]: > 30 mg/kg

Cc1cc(NC(=O)C2=C3Nc4ccccc4N3CCC2=O)ccn1 [compound 100]
IC50 [1, 4]: 820 nM
minimal effective dose [2, 5]: > 10 mg/kg
ED50 [3, 6]: > 10 mg/kg

CNC(=O)C1=C2Nc3ccccc3N2CCC1=O [compound 102]
IC50 [1, 4]: 400 nM
minimal effective dose [2, 5]: > 10 mg/kg
ED50 [3, 6]: > 10 mg/kg

O=C1CCN2C(=C1C(=O)Nc1c(F)cc(F)cc1Br)Nc1ccccc12 [compound 103]
IC50 [1, 4]: 1200 nM
minimal effective dose [2, 5]: > 10 mg/kg
ED50 [3, 6]: > 10 mg/kg

O=C1CCN2C(=C1C(=O)Nc1c(F)cc(F)cc1F)Nc1cc(Cl)ccc12 [compound 104]
IC50 [1, 4]: 13 nM
minimal effective dose [2, 5]: 10 mg/kg
ED50 [3, 6]: 1 mg/kg

CC(C)NC(=O)C1=C2Nc3ccccc3N2CCC1=O [compound 105]
IC50 [1, 4]: 46 nM
minimal effective dose [2, 5]: > 10 mg/kg
ED50 [3, 6]: > 10 mg/kg

O=C1CCN2C(=C1C(=O)Nc1ccncc1)Nc1cc(F)ccc12 [compound 106]
IC50 [1, 4]: 42 nM
minimal effective dose [2, 5]: 3 mg/kg
ED50 [3, 6]: 3 mg/kg

O=C1CCN2C(=C1C(=O)Nc1c(F)cc(F)cc1F)Nc1cc(F)ccc12 [compound 107]
IC50 [1, 4]: 3 nM
minimal effective dose [2, 5]: 0.3 mg/kg
ED50 [3, 6]: 1 mg/kg

O=C1CCN2C(=C1C(=O)Nc1ccccc1F)Nc1cc(F)ccc12 [compound 108]
IC50 [1, 4]: 2 nM
minimal effective dose [2, 5]: 10 mg/kg
ED50 [3, 6]: < 1 mg/kg

O=C1CCN2C(=C1C(=O)Nc1c(F)cccc1F)Nc1cc(F)ccc12 [compound 109]
IC50 [1, 4]: 1.3 nM
minimal effective dose [2, 5]: 3 mg/kg
ED50 [3, 6]: 0.3 mg/kg

O=C1CCN2C(=C1C(=O)Nc1ccccc1F)Nc1cc(Cl)ccc12 [compound 113]
IC50 [1, 4]: 5 nM
minimal effective dose [2, 5]: < 10 mg/kg
ED50 [3, 6]: 1 mg/kg

O=C1CCN2C(=C1C(=O)Nc1c(F)cccc1F)Nc1cc(Cl)ccc12 [compound 114]
IC50 [1, 4]: 6 nM
minimal effective dose [2, 5]: 3 mg/kg
ED50 [3, 6]: 1 mg/kg

CN(C)CCc1ccc(NC(=O)C2=C3Nc4ccccc4N3CCC2=O)cc1 [compound 115]
IC50 [1, 4]: 110 nM
minimal effective dose [2, 5]: 30 mg/kg
ED50 [3, 6]: > 30 mg/kg

O=C1CCN2C(=C1C(=S)Nc1ccccc1)Nc1ccccc12 [compound 117]
IC50 ([1]; Table 2): 360 nM
minimal effective dose [2, 7]: > 10 mg/kg
ED50 [3, 8]: > 10 mg/kg

O=C1CCN2C(=C1C(=O)Sc1ccccc1)Nc1ccccc12 [compound 119]
IC50 ([1]; Table 2): 29 nM
minimal effective dose [2, 7]: > 10 mg/kg
ED50 [3, 8]: > 30 mg/kg

CN1C2=C(C(=O)Nc3ccccc3)C(=O)CCN2c2ccccc21 [compound 120]
IC50 ([1]; Table 3): 6 nM
minimal effective dose [2, 9]: < 1 mg/kg
ED50 [3, 10]: < 1 mg/kg

CCN1C2=C(C(=O)Nc3ccccc3)C(=O)CCN2c2ccccc21 [compound 121]
IC50 ([1]; Table 3): < 0.1 nM
minimal effective dose [2, 9]: < 1 mg/kg
ED50 [3, 10]: < 1 mg/kg

CN1C2=C(C(=O)Nc3ccccc3F)C(=O)CCN2c2ccccc21 [compound 122]
IC50 ([1]; Table 3): < 1 nM
minimal effective dose [2, 9]: 0.03 mg/kg
ED50 [3, 10]: 0.03 mg/kg

CCN1C2=C(C(=O)Nc3ccccc3F)C(=O)CCN2c2ccccc21 [compound 123]
IC50 ([1]; Table 3): 2.1 nM
minimal effective dose [2, 9]: 0.3 mg/kg
ED50 [3, 10]: 0.01 mg/kg

CN(C)c1ccc(NC(=O)C2=C3N(C)c4ccccc4N3CCC2=O)cc1 [compound 124]
IC50 ([1]; Table 3): 29 nM
minimal effective dose [2, 9]: 10 mg/kg
ED50 [3, 10]: 1 to 3 mg/kg

CCN1C2=C(C(=O)Nc3ccc(N(C)C)cc3)C(=O)CCN2c2ccccc21 [compound 125]
IC50 ([1]; Table 3): 72 nM
minimal effective dose [2, 9]: > 10 mg/kg
ED50 [3, 10]: 0.3 mg/kg

CN1C2=C(C(=O)Nc3ccncc3)C(=O)CCN2c2ccccc21 [compound 126]
IC50 ([1]; Table 3): 230 nM
minimal effective dose [2, 9]: < 10 mg/kg
ED50 [3, 10]: 3 mg/kg

O=C1CCN2C(=C1C(=O)Nc1ccccc1)N(Cc1ccccc1)c1ccccc12 [compound 127]
IC50 ([1]; Table 3): 12 nM
minimal effective dose [2, 9]: 10 mg/kg
ED50 [3, 10]: 3 mg/kg

O=C1CCN2C(=C1C(=O)Nc1ccccc1F)N(Cc1ccccc1)c1ccccc12 [compound 128]
IC50 ([1]; Table 3): 88 nM
minimal effective dose [2, 9]: > 10 mg/kg
ED50 [3, 10]: 1 mg/kg

O=C1CCN2C(=C1C(=O)Nc1ccc(F)cc1F)N(Cc1ccccc1)c1ccccc12 [compound 129]
IC50 ([1]; Table 3): 12 nM
minimal effective dose [2, 9]: > 10 mg/kg
ED50 [3, 10]: 1 mg/kg

CCCN1C2=C(C(=O)Nc3ccccc3F)C(=O)CCN2c2ccccc21 [compound 130]
IC50 ([1]; Table 3): < 1 nM
minimal effective dose [2, 9]: < 0.3 mg/kg
ED50 [3, 10]: 0.1 mg/kg

CCCN1C2=C(C(=O)Nc3ccc(F)cc3F)C(=O)CCN2c2ccccc21 [compound 131]
IC50 ([1]; Table 3): 2.6 nM
minimal effective dose [2, 9]: < 1 mg/kg
ED50 [3, 10]: 0.3 mg/kg

CCN1C2=C(C(=O)Nc3ccncc3)C(=O)CCN2c2ccccc21 [compound 133]
IC50 ([1]; Table 3): 80 nM
minimal effective dose [2, 9]: 3 mg/kg
ED50 [3, 10]: 3 mg/kg

CC1CN2C(=C(C(=O)Nc3ccccc3)C1=O)N(C)c1ccccc12 (stereo not drawn) [compound 134]
IC50 ([1]; Table 3): 67 nM
minimal effective dose [2, 9]: > 10 mg/kg
ED50 [3, 10]: 3 mg/kg

CN1C2=C(C(=O)Nc3c(F)cc(F)cc3F)C(=O)CCN2c2ccccc21 [compound 135]
IC50 ([1]; Table 3): 13 nM
minimal effective dose [2, 9]: > 10 mg/kg
ED50 [3, 10]: 10 mg/kg

CCCN1C2=C(C(=O)Nc3ccccc3)C(=O)CCN2c2ccccc21 [compound 136]
IC50 ([1]; Table 3): 2.5 nM
minimal effective dose [2, 9]: 10 mg/kg
ED50 [3, 10]: 1 mg/kg

CCCN1C2=C(C(=O)Nc3c(F)cc(F)cc3F)C(=O)CCN2c2ccccc21 [compound 137]
IC50 ([1]; Table 3): < 100 nM
minimal effective dose [2, 9]: > 10 mg/kg
ED50 [3, 10]: 1 mg/kg

O=C(Nc1ccccc1)c1c(=O)ccn2c1[nH]c1ccccc12 [compound 138]
IC50 ([1]; Table 4): 24 nM
minimal effective dose [2, 11]: 1 to 10 mg/kg
ED50 [3, 12]: 0.5 mg/kg

O=C(Nc1ccccc1F)c1c(=O)ccn2c1[nH]c1ccccc12 [compound 139]
IC50 ([1]; Table 4): 0.23 nM
minimal effective dose [2, 11]: 0.1 mg/kg
ED50 [3, 12]: 0.3 mg/kg

O=C(Nc1ccncc1)c1c(=O)ccn2c1[nH]c1ccccc12 [compound 140]
IC50 ([1]; Table 4): 260 nM
minimal effective dose [2, 11]: > 10 mg/kg
ED50 [3, 12]: > 10 mg/kg

O=C(Nc1c(F)cccc1F)c1c(=O)ccn2c1[nH]c1ccccc12 [compound 141]
IC50 ([1]; Table 4): < 1 nM
minimal effective dose [2, 11]: 0.3 mg/kg
ED50 [3, 12]: < 0.1 mg/kg

Cn1c2ccccc2n2ccc(=O)c(C(=O)Nc3ccccc3)c12 [compound 142]
IC50 ([1]; Table 4): 45 nM
minimal effective dose [2, 11]: < 1 mg/kg
ED50 [3, 12]: < 1 mg/kg

O=C1CCCN2C(=C1C(=O)Nc1ccccc1)Nc1ccccc12 [compound 143]
IC50 ([1]; Table 5): 104 nM
minimal effective dose [2, 13]: 10 mg/kg
ED50 [3, 14]: > 10 mg/kg

CN1C2=C(C(=O)Nc3ccccc3)C(=O)CCCN2c2ccccc21 [compound 144]
IC50 ([1]; Table 5): 28 nM
minimal effective dose [2, 13]: > 10 mg/kg
ED50 [3, 14]: > 10 mg/kg

O=C1CCCN2C(=C1C(=O)Nc1ccccc1)N(Cc1ccccc1)c1ccccc12 [compound 145]
IC50 ([1]; Table 5): 420 nM
minimal effective dose [2, 13]: > 10 mg/kg
ED50 [3, 14]: > 10 mg/kg

O=C1CCCN2C(=C1C(=O)Nc1ccccc1F)Nc1ccccc12 [compound 146]
IC50 ([1]; Table 5): 3.1 nM
minimal effective dose [2, 13]: 10 mg/kg
ED50 [3, 14]: 1 to 10 mg/kg

CN1C2=C(C(=O)Nc3ccccc3F)C(=O)CCCN2c2ccccc21 [compound 147]
IC50 ([1]; Table 5): 22 nM
minimal effective dose [2, 13]: > 10 mg/kg
ED50 [3, 14]: > 10 mg/kg

O=C1CCCN2C(=C1C(=O)Nc1ccccc1F)N(Cc1ccccc1)c1ccccc12 [compound 148]
IC50 ([1]; Table 5): 150 nM
minimal effective dose [2, 13]: > 10 mg/kg
ED50 [3, 14]: > 10 mg/kg

CN(C)c1ccc(NC(=O)C2=C3Nc4ccccc4N3CCCC2=O)cc1 [compound 149]
IC50 ([1]; Table 5): 1120 nM
minimal effective dose [2, 13]: > 10 mg/kg
ED50 [3, 14]: > 10 mg/kg
